The subject of one assay is IL-6 (THP-1 cells). The assay can be described thus: IL-6 inhibition in LPS-stimulated THP-1 cells (HTRF). The settings on record: Homo sapiens; for EC50: THP-1 cells, LPS 500 ng/mL, 22 hours, IL6 HTRF; for inhibition at 10 µM: given where EC50 >10 μM, THP-1, IL6, read-out: percent inhibition at 10 μM. In kind it is cell-based. As to the method:
Human Monocyte Cell Culture: Human monocyte cell line (THP-1 cells; Catalog # TIB-202, ATCC, Manassas, Va.) were cultured in Roswell Park Memorial Institute (RPMI) 1640 Medium (Catalog #21870-100, Buffalo, N.Y.) with 1% L-glutamine, 1% HEPES, 1% Sodium Pyruvate, 2% Sodium Bicarbonate supplemented with 100 units/mL penicillin, 50 μg/mL streptomycin, 2-mercaptoethanol (0.05 mM) [basal medium] and 10% fetal bovine serum (Catalog #16140089, Life Technologies, Carlsbad, Calif.) at 37° C. and 5% CO2.
Compound Screening: THP-1 cells were cultured in basal media with 1% FBS for 24 hours before the start of the assay. Each compound was dissolved in DMSO as a 10 mM stock and used to prepare compound source plates. Serial dilution (1:3, 10-point dose-response curves starting from 10 μM) and compound transfer was performed using the ECHO 550 (Labcyte, Sunnyvale, Calif.) into 384-well white low volume assay plates (Greiner Bio-One) with appropriate DMSO backfill for a final DMSO concentration of 0.1%. THP-1 cells were plated at 5000 cells/well in the 384-well plates and incubated at 37° C. for 2 h. 500 ng/mL of LPS was added after 2 hours and cells were incubated for another 22 hours at 37° C. Plates were spun in a centrifuge for 1 minute at […] and a mixture of anti-IL6 XL665, and anti-IL6 Cryptate diluted in reconstitution buffer (Cisbio Inc.) was added to each well. Following incubation for 3 hrs at room temperature, Homogeneous Time-Resolved Fluorescence (HTRF) was measured using the Envision (Perkin Elmer) at 665 nm and […]. The ratio of fluorescence at 665 nm to 620 nm was used as a readout for IL6 quantification. All samples were processed in duplicate. Readings were normalized to DMSO treated cells and normalized activities were utilized for EC50 calculations using the dose-response log (inhibitor) vs. response —variable slope (four parameters) nonlinear regression feature available in GraphPad Prism 5.0 (or Dotmatics). For EC50 of >10 μM, the percent inhibition at 10 μM is provided.
(TR-FRET usually uses a lanthanide donor and a delayed reading to cut background.)

The subject of a further assay is SW480 colon cancer cells. The assay can be described thus: Cell viability assay (CellTiter-Blue). It is filed as cell-based. As to conditions: Homo sapiens; for EC50: 96 h, SW480 cell viability, four days, CellTiter-Blue; for inhibition at 10 µM: given where EC50 >10 μM, SW480 viability, read-out: percent inhibition at 10 μM. The protocol:
Representative compounds were screened using the following assay procedure to assess the effect on cell viability as described below.
Each compound was dissolved in DMSO as a 10 mM stock and used to prepare compound source plates. Serial dilution (1:3, 8-point dose-response curves from 10 μM to 0.0045 μM) and compound transfer was performed using the ECHO 550 (Labcyte, Sunnyvale, Calif.) into 96-well clear bottom, black-walled plates (Corning-Costar).
Approximately 2×10^3 SW480 colon cancer cells were seeded into each well and allowed to incubate in the presence or absence of compound for four days at 37° C./5% CO2. Eight replicates of DMSO-treated cells served as controls and cells treated with compound were performed in duplicate.
After incubation, 20 μL of CellTiter-Blue (Promega) was added to each well allowed to incubate for approximately 3 hours. This reagent was a buffered solution which contains resazurin, metabolically active cells were able to reduce rezarurin (blue) into resorufin (pink) which was highly fluorescent. This measured fluorescence was used as a readout for cell viability.
After incubation, the plates were read at Ex 560 nm Em 590 nm (Cytation 3, BioTek). Dose-response curves were generated and EC50 concentration values were calculated using non-linear regression curve fit in the GraphPad Prism (San Diego, Calif.) or Dotmatics' Studies Software (Bishops Stortford, UK). For EC50 of >10 μM, the percent inhibition at 10 μM is provided.
(In general: Resazurin is reduced to fluorescent resorufin, in cell work by metabolically active cells.)

Usually EC50 stands for the concentration needed to bring the measured effect to its halfway point. Low readings indicate an effect from little substance, high ones a need for much substance. The term inhibition denotes the share of the control response that was lost under treatment. As for `Fc1cccc(-c2ccnc3[nH]c(-c4n[nH]c5ccc(-c6cccnc6)nc45)cc23)c1` [Compound 4, 3-(4-(3-Fluorophenyl)-1H-pyrrolo[2,3-b]pyridin-2-yl)-5-(pyridin-3-yl)-1H-pyrazolo[4,3-b]pyridine], the response in the assay with IL-6 (THP-1 cells) was half-maximal at 1.84 µM (EC50). In the assay on SW480 colon cancer cells, the EC50 was more than 10 µM and the inhibition at 10 µM amounted to 6.4%.
Turning to `CC(C)(C)C(=O)Nc1cncc(-c2ccc3[nH]nc(-c4cc5c(-c6cccc(F)c6)ccnc5[nH]4)c3n2)c1` [Compound 8, N-(5-(3-(4-(3-Fluorophenyl)-1H-pyrrolo[2,3-b]pyridin-2-yl)-1H-pyrazolo [4,3-b]pyridin-5-yl)pyridin-3-yl)pivalamide], the EC50 in the assay on IL-6 (THP-1 cells) and in the assay with SW480 colon cancer cells was more than 10 µM each time. The inhibition at 10 µM turned out to be 13.7% with IL-6 (THP-1 cells) and 18.4% in the assay on SW480 colon cancer cells.
On to `Cc1ccncc1-c1ccc2[nH]nc(-c3cc4c(-c5ccc(F)cc5)ccnc4[nH]3)c2n1` [Compound 33, 3-(4-(4-Fluorophenyl)-1H-pyrrolo[2,3-b]pyridin-2-yl)-5-(4-methylpyridin-3-yl)-1H-pyrazolo[4,3-b]pyridine], for which, in the assay with IL-6 (THP-1 cells), the EC50 is more than 10 µM and the inhibition at 10 µM stood at 5.4%. In the assay with SW480 colon cancer cells, the EC50 was more than 10 µM and the inhibition at 10 µM was 15.9%.
Regarding `O=C(Nc1cncc(-c2ccc3[nH]nc(-c4cc5c(-c6ccc(F)cc6)ccnc5[nH]4)c3n2)c1)c1ccccc1` [Compound 39, N-(5-(3-(4-(4-Fluorophenyl)-1H-pyrrolo[2,3-b]pyridin-2-yl)-1H-pyrazolo [4,3-b]pyridin-5-yl)pyridin-3-yl)benzamide], the EC50 with IL-6 (THP-1 cells) and with SW480 colon cancer cells was more than 10 µM throughout. Further, the values for the inhibition at 10 µM in the assay with IL-6 (THP-1 cells) and in the assay with SW480 colon cancer cells were 7.7% and 11.1%, respectively.
`Fc1ccc(-c2ccnc3[nH]c(-c4n[nH]c5ccc(-c6cncc(CN7CCC(F)(F)C7)c6)nc45)cc23)cc1` [Compound 54, 5-(5-((3,3-Difluoropyrrolidin-1-yl)methyl)pyridin-3-yl)-3-(4-(4-fluorophenyl)-1H-pyrrolo[2,3-b]pyridin-2-yl)-1H-pyrazolo[4,3-b]pyridine]: in the assay with IL-6 (THP-1 cells), the EC50 was more than 10 µM and the inhibition at 10 µM was found to be 34.8%. Further, in the assay on SW480 colon cancer cells, the EC50 was more than 10 µM and the inhibition at 10 µM was determined as 27.8%.
As to `Fc1ccc(-c2ccnc3[nH]c(-c4n[nH]c5ccc(-c6cncnc6)nc45)cc23)cc1` [Compound 55, 3-(4-(4-Fluorophenyl)-1H-pyrrolo[2,3-b]pyridin-2-yl)-5-(pyrimidin-5-yl)-1H-pyrazolo[4,3-b]pyridine], the 50% effective concentration (EC50) in the assay on IL-6 (THP-1 cells) and in the assay on SW480 colon cancer cells was more than 10 µM throughout. The inhibition at 10 µM in the assay on IL-6 (THP-1 cells) is 14.1%; in the assay with SW480 colon cancer cells, 20.5%.
Regarding `CC(C)CC(=O)Nc1cncc(-c2ccc3[nH]nc(-c4cc5c(-c6ccccc6F)ccnc5[nH]4)c3n2)c1` [Compound 58, N-(5-(3-(4-(2-Fluorophenyl)-1H-pyrrolo[2,3-b]pyridin-2-yl)-1H-pyrazolo [4,3-b]pyridin-5-yl)pyridin-3-yl)-3-methylbutanamide], a half-maximal response with IL-6 (THP-1 cells) (EC50) required 0.1 µM. Besides, in the assay with SW480 colon cancer cells, the EC50 was more than 10 µM and the inhibition at 10 µM amounted to 11.5%.
For `O=C(Nc1cncc(-c2ccc3[nH]nc(-c4cc5c(-c6ccccc6F)ccnc5[nH]4)c3n2)c1)C1CC1` [Compound 76, N-(5-(3-(4-(2-Fluorophenyl)-1H-pyrrolo[2,3-b]pyridin-2-yl)-1H-pyrazolo [4,3-b]pyridin-5-yl)pyridin-3-yl)cyclopropanecarboxamide], the values for the EC50 in the assay with IL-6 (THP-1 cells) and with SW480 colon cancer cells were more than 10 µM and 4.7 µM, respectively. In the assay on IL-6 (THP-1 cells), the inhibition at 10 µM was found to be 42.2%.
Take `Fc1ccccc1-c1ccnc2[nH]c(-c3n[nH]c4ccc(-c5cncc(CNCc6ccccc6)c5)nc34)cc12` [Compound 80, N-Benzyl-1-(5-(3-(4-(2-fluorophenyl)-1H-pyrrolo[2,3-b]pyridin-2-yl)-1H-pyrazolo[4,3-b]pyridin-5-yl)pyridin-3-yl)methanamine]: in the assay with IL-6 (THP-1 cells), the EC50 was more than 10 µM and the inhibition at 10 µM turned out to be 18.2%. In addition, it took 2.06 µM to reach a half-maximal effect with SW480 colon cancer cells (EC50).
`Fc1ccccc1-c1ccnc2[nH]c(-c3n[nH]c4ccc(-c5ccccn5)nc34)cc12` [Compound 84, 3-(4-(2-Fluorophenyl)-1H-pyrrolo[2,3-b]pyridin-2-yl)-5-(pyridin-2-yl)-1H-pyrazolo[4,3-b]pyridine]: in the assay with IL-6 (THP-1 cells), the EC50 came to 0.006 µM. For the same compound, in the assay with SW480 colon cancer cells, the EC50 was more than 10 µM and the inhibition at 10 µM worked out at 16.5%.
For `c1cncc(-c2ccnc3[nH]c(-c4n[nH]c5ccc(-c6ccncc6)nc45)cc23)c1` [Compound 102, 3-(4-(Pyridin-3-yl)-1H-pyrrolo[2,3-b]pyridin-2-yl)-5-(pyridin-4-yl)-1H-pyrazolo[4,3-b]pyridine], in the assay on IL-6 (THP-1 cells), the EC50 was more than 10 µM and the inhibition at 10 µM came to 23.9%. In addition, in the assay on SW480 colon cancer cells, the EC50 is more than 10 µM and the inhibition at 10 µM worked out at 10%.
On to `c1cc(N2CCCCC2)c2cc(-c3n[nH]c4ccc(-c5cncc(CN6CCCCC6)c5)nc34)[nH]c2n1` [Compound 183, 3-(4-(Piperidin-1-yl)-1H-pyrrolo[2,3-b]pyridin-2-yl)-5-(5-(piperidin-1-ylmethyl)pyridin-3-yl)-1H-pyrazolo[4,3-b]pyridine], for which the half-maximal effective concentration (EC50) in the assay with IL-6 (THP-1 cells) and with SW480 colon cancer cells was more than 10 µM each time. Also, the inhibition at 10 µM was determined as 18.2% in the assay with IL-6 (THP-1 cells) and 45.5% with SW480 colon cancer cells.
Consider `c1ccc(-c2ccc3[nH]nc(-c4cc5c(N6CCCCC6)ccnc5[nH]4)c3n2)nc1` [Compound 196, 3-(4-(Piperidin-1-yl)-1H-pyrrolo[2,3-b]pyridin-2-yl)-5-(pyridin-2-yl)-1H-pyrazolo[4,3-b]pyridine], for which, in the assay with IL-6 (THP-1 cells), the EC50 was more than 10 µM and the inhibition at 10 µM was 46.5%. Moreover, in the assay with SW480 colon cancer cells, the EC50 was more than 10 µM and the inhibition at 10 µM stood at 2.4%.
Take `O=C(Nc1cncc(-c2ccc3[nH]nc(-c4cc5cccnc5[nH]4)c3n2)c1)C1CCCCC1` [Compound 275, N-(5-(3-(1H-Pyrrolo[2,3-b]pyridin-2-yl)-1H-pyrazolo[4,3-b]pyridin-5-yl)pyridin-3-yl)cyclohexanecarboxamide]: the EC50 with IL-6 (THP-1 cells) was 0.157 µM. In the assay with SW480 colon cancer cells, the EC50 is more than 10 µM and the inhibition at 10 µM came to 10.5%.
On the same counts, the results for `CN(C)c1cncc(-c2ccc3[nH]nc(-c4cc5c(-c6ccoc6)ccnc5[nH]4)c3n2)c1` [Compound 315, 5-(3-(4-(Furan-3-yl)-1H-pyrrolo[2,3-b]pyridin-2-yl)-1H-pyrazolo[4,3-b]pyridin-5-yl)-N,N-dimethylpyridin-3-amine] are 0.418 µM, more than 10 µM and 6.1%.
`O=C(Cc1ccccc1)Nc1cncc(-c2ccc3[nH]nc(-c4cc5c(-c6ccoc6)ccnc5[nH]4)c3n2)c1` [Compound 318, N-(5-(3-(4-(Furan-3-yl)-1H-pyrrolo[2,3-b]pyridin-2-yl)-1H-pyrazolo[4,3-b]pyridin-5-yl)pyridin-3-yl)-2-phenylacetamide]: in the assay on IL-6 (THP-1 cells), the EC50 was more than 10 µM and the inhibition at 10 µM is 46.6%. Further, in the assay on SW480 colon cancer cells, the EC50 was more than 10 µM and the inhibition at 10 µM was found to be 3%.
The compound `c1csc(-c2ccnc3[nH]c(-c4n[nH]c5ccc(-c6ccncc6)nc45)cc23)c1` [Compound 354, 5-(Pyridin-4-yl)-3-(4-(thiophen-2-yl)-1H-pyrrolo[2,3-b]pyridin-2-yl)-1H-pyrazolo[4,3-b]pyridine] showed an EC50 in the assay on IL-6 (THP-1 cells) of 1.61 µM. For the same compound, in the assay on SW480 colon cancer cells, the EC50 is more than 10 µM and the inhibition at 10 µM stood at 39.8%.

The values above are taken from US10206909B2, “3-(1H-pyrrolo[2,3-B]pyridin-2-yl)-1H-pyrazolo[4,3-B]pyridines and therapeutic uses thereof” (Samumed, LLC, priority 2015, dated 2019).
